target: T1, ferroportin (Fpn) (Mus musculus, UniProt Q9JHI9); assay: Hepcidin Internalization Assay (J774); format: cell-based; settings: Average (AVE) IC50 of multiple measurements; inhibition of TMR-hepcidin (25 nM) internalization into J774 cells
T1 construct: endogenous in cells; host or cells: J774 mouse macrophage cell line, induced with Fe(III)NTA
T1 sequence (Q9JHI9 1-570): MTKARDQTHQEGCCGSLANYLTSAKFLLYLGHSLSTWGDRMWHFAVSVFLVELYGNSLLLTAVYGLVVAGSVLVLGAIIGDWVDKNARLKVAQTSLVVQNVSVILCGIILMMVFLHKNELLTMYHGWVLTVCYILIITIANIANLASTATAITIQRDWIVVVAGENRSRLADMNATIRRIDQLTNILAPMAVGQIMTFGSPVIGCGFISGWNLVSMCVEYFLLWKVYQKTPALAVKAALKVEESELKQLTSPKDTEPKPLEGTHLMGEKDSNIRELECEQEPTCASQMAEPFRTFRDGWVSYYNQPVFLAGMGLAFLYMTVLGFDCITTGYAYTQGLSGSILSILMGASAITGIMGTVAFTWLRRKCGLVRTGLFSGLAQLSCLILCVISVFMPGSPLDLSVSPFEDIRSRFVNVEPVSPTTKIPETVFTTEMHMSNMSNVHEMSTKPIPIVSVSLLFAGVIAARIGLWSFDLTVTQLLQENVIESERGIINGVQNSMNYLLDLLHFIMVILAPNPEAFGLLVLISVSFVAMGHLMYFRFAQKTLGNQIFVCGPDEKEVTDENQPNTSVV
Description: This cellular assay allows quantification of the binding of hepcidin to ferroportin (Fpn) through microscopic detection of internalization of a fluorescently labeled hepcidin into J774 cells. […] Binding of hepcidin to Fpn triggers internalization and degradation of both hepcidin and Fpn. […] Therefore, microscopic detection of cell-associated TMR fluorescence is a measure of hepcidin binding to Fpn and internalization of hepcidin and Fpn. If TMR-hepcidin is prevented from binding to Fpn, cellular TMR fluorescence remains low (Durrenberger et al, 2013). The effect of small molecular weight Fpn inhibitor compounds in this assay was evaluated in vitro as described below. […] After removal of the paraformaldehyde solution, cells were washed 3 times with PBS leaving 100 μl per well and the plates were sealed with foil plate seal. TMR (530-550 nm excitation/575-625 nm emission/400 ms exposure time) and Hoechst 33342 (360-370 nm excitation/420-460 nm emission /10 ms exposure time) fluorescence images were acquired using a […] imager (Olympus) with a 20× high NA objective. […] The acquired image data was analysed with the […] analysis software. […] IC50 values were calculated with the Sum(Mean) raw data using “log(inhibitor) vs. response” curve fitting of Prism 5 software (GraphPad Software Inc., version 5.02). For each data set the fit of the “log(inhibitor) vs. response (three parameters)” model was compared to the fit of the “log(inhibitor) vs. response - Variable slope (four parameters)” model and the IC50 data of the preferred model was used.

`O=C(NCc1ncccc1F)c1coc(CCNCCc2nc3ccccc3n2Cc2ccccc2Cl)n1` [Example 54, 2-(2-((2-(1-(2-chlorobenzyl)-1H-benzo[d]imidazol-2-yl)ethyl)amino)ethyl)-N-((3-fluoropyridin-2-yl)methyl)oxazole-4-carboxamide] and `O=C(NCc1ncccc1F)c1coc(CCNCCc2nc3ccccc3n2Cc2ccc(Cl)cc2)n1` [Example 58, 2-(2-((2-(1-(4-chlorobenzyl)-1H-benzo[d]imidazol-2-yl)ethyl)amino)ethyl)-N-((3-fluoropyridin-2-yl)methyl)oxazole-4-carboxamide] are within 1.5-fold of each other in IC50: 0.9 nM for the first, 0.8 nM for the second.

`COCCOCCn1c(CCNCCc2nc(C(=O)NCc3ncccc3OC)co2)nc2cc3c(cc21)OCCO3` [Example 66, 2-(2-((2-(1-(2-(2-methoxyethoxy)ethyl)-6,7-dihydro-1 H-[1,4]dioxino[2′,3′:4,5]benzo[1,2-d]imidazol-2-yl)ethyl)amino)ethyl)-N-((3-methoxypyridin-2-yl)methyl)oxazole-4-carboxamide] and `COCCn1c(CCNCCc2nc(C(=O)NCc3ncccc3OC)co2)nc2cc3c(cc21)OCCO3` [Example 67, 2-(2-((2-(1-(2-methoxyethyl)-6,7-dihydro-1H-[1,4]dioxino[2′,3′:4,5]benzo[1,2-d]imidazol-2-yl)ethyl)amino)ethyl)-N-((3-methoxypyridin-2-yl)methyl)oxazole-4-carboxamide] are within 1.5-fold of each other in IC50: 5 nM for the first, 4.3 nM for the second.

Compared with `O=C(NCc1ncccc1F)c1coc(CCNCCc2nc3ccccc3n2CC(F)F)n1` [Example 53, 2-(2-((2-(1-(2,2-difluoroethyl)-1H-benzo[d]imidazol-2-yl)ethyl)amino)ethyl)-N-((3-fluoropyridin-2-yl)methyl)oxazole-4-carboxamide], `CC(C)Cn1c(CCNCCc2nc(C(=O)NCc3ncccc3F)co2)nc2ccccc21` [Example 8, N-((3-fluoropyridin-2-yl)methyl)-2-(2-((2-(1-isobutyl-1 H-benzo[d]imidazol-2-yl)ethyl)amino)ethyl)oxazole-4-carboxamide] is 4.2-fold lower in IC50: 5 nM for the first, 1.2 nM for the second. The second is the more potent here.

`CCCCn1c(CCNCCc2nc(C(=O)NCc3ncccc3OC)co2)nc2ccccc21` [Example 46, 2-(2-((2-(1-butyl-1 H-benzo[d]imidazol-2-yl)ethyl)amino)ethyl)-N-((3-methoxypyridin-2-yl)methyl)oxazole-4-carboxamide] and `CCCCn1c(CCNCCc2nc(C(=O)NCc3ncccc3F)co2)nc2ccccc21` [Example 2, 2-(2-((2-(1-butyl-1 H-benzo[d]imidazol-2-yl)ethyl)amino)ethyl)-N-((3-fluoropyridin-2-yl)methyl)oxazole-4-carboxamide] are the same in IC50: 1 nM for the first, 1 nM for the second.

Compared with `CCCCn1c(CCNCCc2nc(C(=O)NCc3ncccc3F)co2)nc2cc(-c3ccccc3)ccc21` [Example 42, 2-(2-((2-(1-butyl-5-phenyl-1 H-benzo[d]imidazol-2-yl)ethyl)amino)ethyl)-N-((3-fluoropyridin-2-yl)methyl)oxazole-4-carboxamide], `CCCCn1c(CCNCCc2nc(C(=O)NCc3ncccc3Cl)co2)nc2ccccc21` [Example 9, 2-(2-((2-(1-butyl-1 H-benzo[d]imidazol-2-yl)ethyl)amino)ethyl)-N-((3-chloropyridin-2-yl)methyl)oxazole-4-carboxamide] is 2.4-fold lower in IC50: 2.4 nM for the first, 1 nM for the second.

Going from `CN(C)CCn1c(CCNCCc2nc(C(=O)NCc3ncccc3F)co2)nc2ccccc21` [Example 56, 2-(2-((2-(1-(2-(dimethylamino)ethyl)-1 H-benzo[d]imidazol-2-yl)ethyl)amino)ethyl)-N-((3-fluoropyridin-2-yl)methyl)oxazole-4-carboxamide] to `COCCn1c(CCNCCc2nc(C(=O)NCc3ncccc3F)co2)nc2ccccc21` [Example 1, N-((3-fluoropyridin-2-yl)methyl)-2-(2-((2-(1-(2-methoxyethyl)-1 H-benzo[d]imidazol-2-yl)ethyl)amino)ethyl)oxazole-4-carboxamide], the IC50 falls from 9 nM to 4 nM (2.2-fold). The second is the more potent here.

First: O=C(NCc1ncccc1F)c1coc(CCNCCc2nc3cc4c(cc3n2CCOC2CCCCC2)OCCO4)n1 [Example 88, 2-(2-((2-(1-(2-(cyclohexyloxy)ethyl)-6,7-dihydro-1H-[1,4]dioxino[2′,3′:4,5]benzo[1,2-d]imidazol-2-yl)ethyl)amino)ethyl)-N-((3-fluoropyridin-2-yl)methyl)oxazole-4-carboxamide]
Second: O=C(NCc1ncccc1F)c1coc(CCNCCc2nc3cc4c(cc3n2CC(F)F)OCCO4)n1 [Example 71, 2-(2-((2-(1-(2,2-difluoroethyl)-6,7-dihydro-1 H-[1,4]dioxino[2′,3′:4,5]benzo[1,2-d]imidazol-2-yl)ethyl)amino)ethyl)-N-((3-fluoropyridin-2-yl)methyl)oxazole-4-carboxamide]
The IC50 of the first is 7.8-fold lower: 0.9 nM for the first, 7 nM for the second.

`COCCOCCn1c(CCNCCc2nc(C(=O)NCc3ncccc3F)co2)nc2ccccc21` [Example 48, N-((3-fluoropyridin-2-yl)methyl)-2-(2-((2-(1-(2-(2-methoxyethoxy)ethyl)-1 H-benzo[d]imidazol-2-yl)ethyl)amino)ethyl)oxazole-4-carboxamide] and `CC(C)OCCn1c(CCNCCc2nc(C(=O)NCc3ncccc3F)co2)nc2ccccc21` [Example 57, N-((3-fluoropyridin-2-yl)methyl)-2-(2-((2-(1-(2-isopropoxyethyl)-1 H-benzo[d]imidazol-2-yl)ethyl)amino)ethyl)oxazole-4-carboxamide] are within 1.5-fold of each other in IC50: 2 nM for the first, 1.4 nM for the second.

Compared with `COc1cccc(-n2c(CCNCCc3nc(C(=O)NCc4ncccc4F)co3)nc3cc4c(cc32)OCCO4)c1` [Example 92, N-((3-fluoropyridin-2-yl)methyl)-2-(2-((2-(1-(3-methoxyphenyl)-6,7-dihydro-1 H-[1,4]dioxino[2′,3′:4,5]benzo[1,2-d]imidazol-2-yl)ethyl)amino)ethyl)oxazole-4-carboxamide], `COc1cccnc1CNC(=O)c1coc(CCNCCc2nc3cc4c(cc3n2CC(F)F)OCCO4)n1` [Example 68, 2-(2-((2-(1-(2,2-difluoroethyl)-6,7-dihydro-1 H-[1,4]dioxino[2′,3′:4,5]benzo[1,2-d]imidazol-2-yl)ethyl)amino)ethyl)-N-((3-methoxypyridin-2-yl)methyl)oxazole-4-carboxamide] is 3.5-fold higher in IC50: 2 nM for the first, 7 nM for the second. The first is the more potent here.

`NC(=O)Cn1c(CCNCCc2nc(C(=O)NCc3ncccc3F)co2)nc2ccccc21` [Example 16, 2-(2-((2-(1-(2-amino-2-oxoethyl)-1H-benzo[d]imidazol-2-yl)ethyl)amino)ethyl)-N-((3-fluoropyridin-2-yl)methyl)oxazole-4-carboxamide] and `O=C(O)Cn1c(CCNCCc2nc(C(=O)NCc3ncccc3F)co2)nc2ccccc21` [Example 14, 2-(2-(2-((2-(4-(((3-fluoropyridin-2-yl)methyl)carbamoyl)oxazol-2-yl)ethyl)amino)ethyl)-1H-benzo[d]imidazol-1-yl)acetic acid] are within 1.5-fold of each other in IC50: 181 nM for the first, 126 nM for the second.

Going from `CCCCn1c(CCNCCc2nc(C(=O)NCc3ccccn3)co2)nc2ccccc21` [Example 11, 2-(2-((2-(1-butyl-1 H-benzo[d]imidazol-2-yl)ethyl)amino)ethyl)-N-(pyridin-2-ylmethyl)oxazole-4-carboxamide] to `CCCCn1c(CCNCCc2nc(C(=O)NCc3ncccc3C(F)(F)F)co2)nc2ccccc21` [Example 47, 2-(2-((2-(1-butyl-1 H-benzo[d]imidazol-2-yl)ethyl)amino)ethyl)-N-((3-(trifluoromethyl)pyridin-2-yl)methyl)oxazole-4-carboxamide], the IC50 rises from 2 nM to 8 nM (4-fold). The first is the more potent here.

First: Cn1c(CCNCCc2nc(C(=O)NCc3ncccc3F)co2)nc2ccccc21 [Example 5, N-((3-fluoropyridin-2-yl)methyl)-2-(2-((2-(1-methyl-1 H-benzo[d]imidazol-2-yl)ethyl)amino)ethyl)oxazole-4-carboxamide]
Second: O=C(NCc1ncccc1F)c1coc(CCNCCc2nc3ccccc3n2CCc2ncco2)n1 [Example 31, N-((3-fluoropyridin-2-yl)methyl)-2-(2-((2-(1-(2-(oxazol-2-yl)ethyl)-1 H-benzo[d]imidazol-2-yl)ethyl)amino)ethyl)oxazole-4-carboxamide]
The IC50 of the first is 2.5-fold higher: 7 nM for the first, 2.8 nM for the second. The second is the more potent here.

Work on `O=C(NCc1ncccc1F)c1coc(CCNCCc2nc3ccccc3n2Cc2ccccn2)n1` [Example 3, N-((3-fluoropyridin-2-yl)methyl)-2-(2-((2-(1-(pyridin-2-ylmethyl)-1H-benzo[d]imidazol-2-yl)ethyl)amino)ethyl)oxazole-4-carboxamide] yielded an IC50 of 2 nM.
